Assay results taken from US7199113B2, “Pharmaceutically active compounds and methods of use thereof” (priority 1998, dated 2007).

Legend:
Assay type in all cases: biochemical
[1] = molecular target: Russell's viper venom (RVV) (Daboia siamensis, UniProt Q7LZ61)
[2] = molecular target: T1, TF/VIIa complex (Homo sapiens, UniProt P13726); experiment: TF/VIIa-dependent FIX activation assay; conditions: for blocking activity in standard assay for TF/VIIa-dependent factor IX activation: statement on FIG. 3; for inhibition of TF/VIIa-dependent FIX activation: statement on Table 4 (FIG. 2(d))
T1 construct: Truncated recombinant human tissue factor (e.g. composed of 243 amino acids) is expressed in E. coli; host or cells: E. coli (TF)
Procedure: In a more particular embodiment, the standard assay preferably includes the following steps: • 1) admixing in a suitable assay solution about 0.7 nM TF/VIIa complex with 300 nM factor IX and 1000 nM factor X, and from between about 0.5 μl to about 10 μl of at least one compound to be tested (optionally dissolved in an appropriate vehicle such as water or dimethylsulfoxide (DMSO)) and incubating the solution at 37° C. from between about a few minutes up to about an hour under conditions suitable for forming FIXa and FXa; • 2) contacting the solution with a suitable chelating agent such as EDTA to stop FIX activation; • 3) contacting the solution with a chromogenic substrate specific for the FXa (e.g., Spectrozyme FXa) and incubating same at 37° C.; and • 4) detecting chromophore in the solution as being indicative of the factor IX activation.
TF/VIIa is not only able to activate FX, but is also able to convert FIX to FIXa. To examine whether the two antagonists 1 and 2 were able to block FIX activation catalyzed by TF/VIIa. FIX activation experiment was conducted. To each well of a 96-well plate, 5 μl of diluted DMSO or compound was added, followed by 45 μl of TF/VIIa (0.67 nM). After mixing and incubating for 15 minutes at 37° C., 10 μl of FIX (300 nM) was added and incubated for 10 minutes at 37° C. 10 μl of EDTA ([…] in 144 mM HEPES, […], 0.576% BSA, pH adjusted to 7.5) was added, followed by addition of 10 μl of FX (1000 nM), 10 μl of polylysine, and 10 μl of Spectrozyme FXa (6 mM). After 3 hour incubation at 37° C., absorbance at 405 nm was measured following addition of 20 μl of 50% acetic acid. The percent inhibition of TF/VIIa-dependent FIX activation was calculated from OD405 nm values in the absence and presence of a compound.

[3] = molecular target: T2, FXa (Homo sapiens, UniProt P00742); experiment: FXa activity assay; conditions: statement on Table 1 (FIG. 2(a))
T2 construct: FX is converted to FXa by TF/VIIa complex in the absence of any compound; purchased Enzyme Research Laboratories Inc
Procedure: FX is converted to FXa by TF/VIIa complex in the absence of any compound. To do that, 54 μl of TF/VIIa (50 nM) was added to 27 ml of buffer in a 50-ml tube. Then 6 ml of FX (180 nM) was added and incubated at 37° C. for 15 minutes. Six ml of EDTA was added to stop FX activation. Five μl of compound or DMSO was placed in each well of a 96-well plate in duplicate, then 65 μl of FXa generated above was added to each well and mixed. After incubation for 15 minutes at 37° C., 10 μl of FXa substrate Spectrozyme FXa was added and incubated for 20 minutes at 37° C. Absorbance at 405 nm was then measured following addition of 20 μl of 50% acetic acid. The percent inhibition of FXa activity was calculated from OD405 nm values in the absence and presence of a compound.

[4] = molecular target: T3, thrombin (Homo sapiens, UniProt P00734); experiment: Thrombin activity assay; conditions: statement on Table 1 (FIG. 2(a))
T3 construct: followed by addition of 10 μl of thrombin (20 nM); purchased Enzyme Research Laboratories Inc
Procedure: For thrombin activity assay, 55 μl of buffer was mixed with 5 μl of DMSO or compound, followed by addition of 10 μl of thrombin (20 nM). Mix and incubate at 37° C. for 10 minutes. Then 10 μl of substrate S-2238 was added and allowed to incubate at 37° C. for 15–20 minutes. Absorbance at 405 nm was then measured and the percent inhibition of thrombin activity was calculated from OD405 nm values in the absence and presence of a compound.

[5] = tested on: human plasma (TF-initiated clotting); experiment: Prothrombin time (PT) assay; conditions: lipidated recombinant tissue factor 1–3 nM, statement on FIG. 4
Procedure: Clot times are generally measured in seconds. Preferred PT assays are typically performed by adding a suitable amount (e.g. about 1 to 3 nM) of lipidated tissue factor to an assay solution that includes conventionally citrated plasma. The PT assay measures TF-mediated blood plasma clot time and is preferably performed by conducting the following steps: • 1) providing about 0.1 ml of citrated human plasma in a suitable assay solution, and combining same with between from about 0.5 μl to 10 μl of at least one compound to be tested (optionally dissolved in vehicle such as water or dimethylsulfoxide (DMSO)) and incubating same at room temperature for about 3 to 10 minutes, • 2) admixing into the solution from between about 0.2 ml (ca. 1–3 nM recombinant human tissue factor) and about 5–10 mM of calcium to initiate plasma clotting; and • 3) measuring the plasma clot time to determine the prothrombin clot time (PT).
The PT assay was performed at 37° C. with an Electra 800 (Medical Automation, Inc.). The PT reaction was initiated by adding 0.2 ml of lipidated recombinant human tissue factor into 0.105 ml of human plasma (Ci-Trol Control Level I, from VWR, Cat. No. 68100-336). […] Following mixing the compound (or DMSO) with plasma (Ci-Trol), 0.2 ml of lipidated reocombinant tissue factor (1–3 nM) is added to the plasma and clotting times were measured within 10 min.

T1 sequence (P13726 33-275 limits assumed): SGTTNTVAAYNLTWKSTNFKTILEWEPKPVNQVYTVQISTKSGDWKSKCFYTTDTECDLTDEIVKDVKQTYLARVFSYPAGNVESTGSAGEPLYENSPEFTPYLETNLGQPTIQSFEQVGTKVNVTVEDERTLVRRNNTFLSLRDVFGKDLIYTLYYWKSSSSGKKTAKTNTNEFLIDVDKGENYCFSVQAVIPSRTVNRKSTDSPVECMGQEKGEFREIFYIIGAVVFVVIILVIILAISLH
T1 sequence (P08709 61-212 partner limits assumed): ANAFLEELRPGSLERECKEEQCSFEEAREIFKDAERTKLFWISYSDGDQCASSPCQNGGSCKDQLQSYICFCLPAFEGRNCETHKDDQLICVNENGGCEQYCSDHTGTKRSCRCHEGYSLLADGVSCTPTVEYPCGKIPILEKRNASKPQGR
T1 sequence (P08709 213-466 partner limits assumed): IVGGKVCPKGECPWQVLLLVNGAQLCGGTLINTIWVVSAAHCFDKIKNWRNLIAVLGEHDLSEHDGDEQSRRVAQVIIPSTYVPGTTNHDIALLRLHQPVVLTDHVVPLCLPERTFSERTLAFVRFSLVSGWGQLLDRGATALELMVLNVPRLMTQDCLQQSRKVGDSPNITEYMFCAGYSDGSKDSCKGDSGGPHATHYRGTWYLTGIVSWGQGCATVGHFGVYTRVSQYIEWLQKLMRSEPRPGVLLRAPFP
Russell's viper venom (RVV), sequence (Q7LZ61 whole entry, looked up): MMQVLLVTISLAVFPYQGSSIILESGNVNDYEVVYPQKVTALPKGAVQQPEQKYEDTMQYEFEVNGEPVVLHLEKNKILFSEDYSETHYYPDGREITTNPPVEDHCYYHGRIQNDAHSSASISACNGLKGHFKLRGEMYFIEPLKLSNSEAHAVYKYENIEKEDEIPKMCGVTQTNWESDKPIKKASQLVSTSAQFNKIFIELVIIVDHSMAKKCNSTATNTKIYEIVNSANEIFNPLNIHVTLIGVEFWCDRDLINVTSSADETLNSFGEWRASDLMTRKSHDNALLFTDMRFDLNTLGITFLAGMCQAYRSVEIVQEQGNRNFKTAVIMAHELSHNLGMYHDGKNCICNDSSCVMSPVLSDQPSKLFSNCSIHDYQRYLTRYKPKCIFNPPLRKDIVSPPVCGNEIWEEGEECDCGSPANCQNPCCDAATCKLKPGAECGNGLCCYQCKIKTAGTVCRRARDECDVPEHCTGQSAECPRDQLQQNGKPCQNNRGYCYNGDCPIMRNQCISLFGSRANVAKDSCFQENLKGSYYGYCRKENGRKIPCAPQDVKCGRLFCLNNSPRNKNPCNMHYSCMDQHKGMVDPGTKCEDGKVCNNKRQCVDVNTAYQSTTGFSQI
T2 sequence (P00742 235-488 limits assumed): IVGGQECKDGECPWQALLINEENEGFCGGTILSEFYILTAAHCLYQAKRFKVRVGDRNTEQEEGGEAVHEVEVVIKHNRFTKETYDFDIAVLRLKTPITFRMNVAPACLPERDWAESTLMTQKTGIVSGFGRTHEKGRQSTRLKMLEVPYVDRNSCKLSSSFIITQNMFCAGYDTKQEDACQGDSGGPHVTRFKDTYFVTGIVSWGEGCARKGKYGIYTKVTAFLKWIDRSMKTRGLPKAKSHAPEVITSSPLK
T2 sequence (P00742 41-179 limits assumed): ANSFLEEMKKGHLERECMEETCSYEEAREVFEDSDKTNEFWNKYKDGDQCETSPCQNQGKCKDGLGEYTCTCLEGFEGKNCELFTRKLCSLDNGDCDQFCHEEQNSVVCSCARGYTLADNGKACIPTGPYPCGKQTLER

| Structure (SMILES) | inhibition of RVV-dependent FX activation [1] | blocking activity in standard assay for TF/VIIa-dependent factor IX activation [2] | inhibition of TF/VIIa-dependent FIX activation [2] | inhibition of FXa activity [3] | inhibition of thrombin activity [4] | effect on TF-initiated PT times (clotting time) [5] |
| --- | --- | --- | --- | --- | --- | --- |
| O=P(O)(O)C(CNc1cccc(O)c1)P(=O)(O)O [Compound 1, 1-(bisphosponate)-2-amino(3-hydroxyphenyl)ethyl] | do not inhibit RVV catalytic activity | good blocking activity | inhibit TF/VIIa-dependent FIX activation | do not inhibit FXa activity | do not inhibit thrombin activity | prolonged TF-initiated PT times significantly |
| O=P(O)(O)C(CNc1ccc(O)cc1)P(=O)(O)O [Compound 2] | do not inhibit RVV catalytic activity | good blocking activity | inhibit TF/VIIa-dependent FIX activation | do not inhibit FXa activity | do not inhibit thrombin activity | prolonged TF-initiated PT times significantly |
